Experimental data taken from ChEMBL document CHEMBL5331108, “Design and Synthesis of 4-Fluorophenyl-5-methylene-2(5H)-furanone Derivatives as Potent Quorum Sensing Inhibitors” (J Med Chem, 2023).
Values after ≈ are worked out from the molar mass of the structure shown. Active and inactive are the calls of the source. The calls are words filed in the database; no cut-off is given here.

Assays:
[1] = tested on: Pseudomonas aeruginosa; test: Antibacterial activity against penicillin-susceptible Pseudomonas aeruginosa ATCC27853 assessed as inhibition of bacterial growth incubated for 20 hrs by CLSI protocol based microdilution method; assay type: functional
[2] = tested on: Pseudomonas aeruginosa; test: Antibacterial activity against wild type Pseudomonas aeruginosa […] CGMCC1.12483 assessed as inhibition of bacterial growth incubated for 20 hrs by CLSI protocol based microdilution method; assay type: functional
[3] = tested on: Bacillus pumilus; test: Antibacterial activity against penicillin-susceptible Bacillus pumilus CMCC63202 assessed as inhibition of bacterial growth incubated for 20 hrs by CLSI protocol based microdilution method; assay type: functional
[4] = tested on: Bacillus subtilis; test: Antibacterial activity against penicillin-susceptible Bacillus subtilis ATCC9372 assessed as inhibition of bacterial growth incubated for 20 hrs by CLSI protocol based microdilution method; assay type: functional
[5] = tested on: Staphylococcus aureus; test: Antibacterial activity against methicillin-resistant Staphylococcus aureus ATCC43300 assessed as inhibition of bacterial growth incubated for 20 hrs by CLSI protocol based microdilution method; assay type: functional
[6] = tested on: Escherichia coli; test: Antibacterial activity against penicillin-susceptible Escherichia coli ATCC25922 assessed as inhibition of bacterial growth incubated for 20 hrs by CLSI protocol based microdilution method; assay type: functional
[7] = tested on: Staphylococcus aureus; test: Antibacterial activity against erthromycin-susceptible Staphylococcus aureus ATCC25923 assessed as inhibition of bacterial growth incubated for 20 hrs by CLSI protocol based microdilution method; assay type: functional
[8] = Inhibition of quorum sensing system in Pseudomonas aeruginosa PAO1 assessed as inhibition of rhamnolipid production at 102.4 ug/ml incubated for 24 hrs by absorbance based assay; conditions: dose 102.4 µg/ml
[9] = Inhibition of quorum sensing system in Pseudomonas aeruginosa PAO1 assessed as inhibition of protease activity at 102.4 ug/ml incubated for 24 hrs by absorbance based assay; conditions: dose 102.4 µg/ml
[10] = tested on: Pseudomonas aeruginosa; test: Antibacterial activity against Pseudomonas aeruginosa PAO1 assessed as inhibition of bacterial growth at 256 ug/ml measured after 25 hrs by absorbance based assay; assay type: functional, organism-based; conditions: dose 256.0 µg/ml
[11] = tested on: Pseudomonas aeruginosa; test: Inhibition of biofilm formation in Pseudomonas aeruginosa PAO1 at 32 ug/ml incubated for 20 hrs by crystal violet staining based analysis; assay type: functional; conditions: dose 32.0 µg/ml
[12] = tested on: Pseudomonas aeruginosa; test: Antibacterial activity against Pseudomonas aeruginosa 27853 assessed as inhibition of bacterial growth at 256 ug/ml measured after 25 hrs by absorbance based assay; assay type: functional, organism-based; conditions: dose 256.0 µg/ml
[13] = Inhibition of quorum sensing system in Pseudomonas aeruginosa PAO1 assessed as inhibition of pyocyanin production at 102.4 ug/ml incubated for 18 hrs by absorbance based assay; conditions: dose 102.4 µg/ml

| Compound | MIC [1] [µg/mL] | MIC [2] [µg/mL] | MIC [3] [µg/mL] | MIC [4] [µg/mL] | MIC [5] [µg/mL] | MIC [6] [µg/mL] | MIC [7] [µg/mL] | inhibition [8] | inhibition [9] | Activity [10] | inhibition [11] | Activity [12] | inhibition [13] |
| --- | --- | --- | --- | --- | --- | --- | --- | --- | --- | --- | --- | --- | --- |
| C=C1OC(=O)C(CNC(=O)c2ccccc2Br)=C1c1ccc(F)cc1 | > 512 | > 512 | > 512 | 16 (≈ 39.8 µM) | 8 (≈ 19.9 µM) | > 512 | > 512 |  |  |  |  |  |  |
| C=C1OC(=O)C(CNC(=O)CCCCCCCCCCC)=C1c1ccc(F)cc1 | > 512 | > 512 | > 512 | > 512 | > 512 | > 512 | > 512 | Active | Active | inactive | Active | inactive | 36.5% |
| C=C1OC(=O)C(CNC(=O)c2ccc(C)cc2)=C1c1ccc(Cl)cc1 | > 512 | > 512 | > 512 | > 512 | > 512 | > 512 | > 512 |  |  |  |  |  |  |
| C=C1OC(=O)C(CNC(=O)c2ccccc2OC)=C1c1ccc(F)cc1 | > 512 | > 512 | > 512 | > 512 | > 512 | > 512 | > 512 |  |  |  |  |  |  |
| C=C1C(c2ccc(F)cc2)=C(CNC(=O)c2ccc(C)cc2)C(=O)N1CCCC | > 512 | > 512 | > 512 | > 512 | > 512 | > 512 | > 512 |  |  |  |  |  |  |
| C=C1C(c2ccc(F)cc2)=C(CNC(=O)c2ccc(C)cc2)C(=O)N1c1cccc(Cl)c1 | > 512 | 512 (≈ 1150 µM) | 512 (≈ 1150 µM) | > 512 | > 512 | > 512 | > 512 |  |  |  |  |  |  |
| C=C1C(c2ccc(F)cc2)=C(CNC(=O)c2ccc(C)cc2)C(=O)N1CCC | 256 (≈ 676 µM) | 512 (≈ 1350 µM) | 512 (≈ 1350 µM) | > 512 | > 512 | > 512 | > 512 |  |  |  |  |  |  |
| C=C1OC(=O)C(CNC(=O)c2ccc(C)cc2)=C1c1ccc(OC)cc1 | > 512 | > 512 | > 512 | > 512 | > 512 | > 512 | > 512 | Active | Active | inactive | inactive | inactive | Active |
| C=C1OC(=O)C(CNC(=O)c2ccc(C)cc2)=C1c1ccccc1Cl | > 512 | > 512 | > 512 | > 512 | > 512 | > 512 | > 512 |  |  |  |  |  |  |
| C=C1C(c2ccc(F)cc2)=C(CNC(=O)c2ccc(C)cc2)C(=O)N1CC | 64 (≈ 176 µM) | 512 (≈ 1400 µM) | 512 (≈ 1400 µM) | > 512 | > 512 | > 512 | > 512 |  |  |  |  |  |  |
| C=C1OC(=O)C(CNC(=O)c2cccc(F)c2)=C1c1ccc(F)cc1 | > 512 | > 512 | > 512 | > 512 | > 512 | > 512 | > 512 |  |  |  |  |  |  |
| C=C1OC(=O)C(CNC(=O)c2ccc(C)cc2)=C1c1ccccc1Br | > 512 | > 512 | > 512 | > 512 | > 512 | > 512 | > 512 |  |  |  |  |  |  |
| C=C1OC(=O)C(CNC(=O)c2cccc(Br)c2)=C1c1ccc(F)cc1 | > 512 | > 512 | > 512 | > 512 | > 512 | > 512 | > 512 |  |  |  |  |  |  |
| C=C1OC(=O)C(CNC(=O)CCCCC)=C1c1ccc(F)cc1 | > 512 | > 512 | 256 (≈ 807 µM) | 256 (≈ 807 µM) | 256 (≈ 807 µM) | > 512 | 16 (≈ 50.4 µM) |  |  |  |  |  |  |
| C=C1OC(=O)C(CNC(=O)c2ccc(C)cc2)=C1c1cccc(C(F)(F)F)c1 | > 512 | > 512 | > 512 | > 512 | > 512 | > 512 | > 512 |  |  |  |  |  |  |
| C=C1OC(=O)C(CNC(=O)c2ccc(C)cc2)=C1c1ccccc1F | > 512 | > 512 | > 512 | > 512 | > 512 | > 512 | > 512 |  |  |  |  |  |  |
| C=C1OC(=O)C(CNC(=O)CCCCCCCC)=C1c1ccc(F)cc1 | > 512 | > 512 | > 512 | > 512 | > 512 | > 512 | > 512 |  |  |  |  |  |  |
